According to PMC6271870, “Study on the Synthesis, Biological Activity and Spectroscopy of Naphthalimide-Diamine Conjugates” (Molecules, 2014):

What was measured:
human leukemia K562 = test: MTT assay, K562 cells; type: cell-based; settings: 48 h, aminoguanidine present, mean ± SD of three determinations, max 50 µM tested
Procedure: The cytotoxicities of the novel conjugates were assessed in vitro by the MTT assay in the presence of aminoguanidine (an inhibitor of amine oxidase) against three cell lines, human leukemia K562, cancer of colon HCT116 and human normal hepatocyte QSG-7701 [34]. […] Thus, compound 7f was selected for further investigation. Cell lines, K562, 7721 and HCT116 were obtained from American Type Culture Collection (ATCC, Shanghai, China). Cells were cultured in RPMI1640, supplemented with 10% heat-inactivated fetal calf serum (FCS), antibiotics (penicillin, 100 units/mL; streptomycin sulfate, 100 μg/mL) at 37 °C, in an atmosphere of 95% air and 5% CO2 under humidified conditions. Aminoguanidine (1 mM) was added as an inhibitor of amine oxidase derived from FCS and had no effect on the various parameters of the cell measured in this study. Chemosensitivity was assessed using the 3-(4,5-dimethylthiazol-2-yl)-2,5-diphenyltetrazolium bromide (MTT) assay. […] After incubation for 4 h at 37 °C, the purple formazan crystals (i.e., a reduced form of MTT) generated from viable cells were dissolved by adding 100 μL 10% sodium dodecyl sulphate (SDS) in each well. The absorbance of each well was then read at 570 nm.

herring sperm DNA = test: Fluorescence quenching of compound by DNA (Stern-Volmer, binding constant, thermodynamics); settings: 7f quenched by DNA
From the text: (§1) The Stern–Volmer equation is the following: F0/F = 1+ KSVc = 1+ […] where F0 and F are the ﬂuorescence intensities in the absence and presence of quencher (DNA for compound 7f or compound 7f for DNA-EB, respectively), KSV is the Stern-Volmer quenching constant, [c] is the concentration of DNA (or compound 7f), Kq is the biomolecule quenching rate constant and Kq = KSV/τ0. τ0 is the average lifetime of the molecule without any quencher and the ﬂuorescence lifetime of the biopolymer is 10^−8 s. The Stern–Volmer plots of F0/F versus [c] at the three temperatures were shown in Figure 9 and Figure 10, and the calculated KSV and Kq values were presented in Table 2 and Table 3.
(§2) When small molecules bind independently to a set of equivalent sites in a macromolecule, the binding constant (Kb) can be determined by the following equation [40, 52]: log[1/c] = log [F/(F0 − F)] + logKb(3) where Kb denotes the binding constant for interaction of naphthalimide–DNA, and F0, F, [c] have the same meanings as in Equation (2).
There are several acting forces between a small organic molecule and biomacromolecules, such as hydrophobic force, hydrogen bond, van der Waals force, electrostatic interactions, etc.
Preparation of sample is the same as that of UV-Vis measurement. Fluorescence wavelengths and intensity areas of samples were measured at following conditions: EX = 345 nm, EM = 355~600 nm temperature: 298, 303 and 310 K.

[1] = tested on: human normal hepatocyte QSG-7701; test: MTT assay, QSG-7701 cells; type: cell-based; settings: QSG7701, aminoguanidine present, mean ± SD of three determinations, max 50 µM tested
Procedure: (§3) The cytotoxicities of the novel conjugates were assessed in vitro by the MTT assay in the presence of aminoguanidine (an inhibitor of amine oxidase) against three cell lines, human leukemia K562, cancer of colon HCT116 and human normal hepatocyte QSG-7701 [34]. […] Thus, compound 7f was selected for further investigation. Cell lines, K562, 7721 and HCT116 were obtained from American Type Culture Collection (ATCC, Shanghai, China). Cells were cultured in RPMI1640, supplemented with 10% heat-inactivated fetal calf serum (FCS), antibiotics (penicillin, 100 units/mL; streptomycin sulfate, 100 μg/mL) at 37 °C, in an atmosphere of 95% air and 5% CO2 under humidified conditions. Aminoguanidine (1 mM) was added as an inhibitor of amine oxidase derived from FCS and had no effect on the various parameters of the cell measured in this study. In addition, exponentially growing HCT116 or 7721 cells were seeded into 96-well plates at 5000 cells/well and allowed to attach overnight, and then 100 μL of MTT (1 mg/mL) was added. After incubation for 4 h at 37 °C, the MTT solution was removed and the remaining formazan crystals were dissolved with 150 μL DMSO in each well. The absorbance of each well was then read at 570 nm.

cancer of colon HCT116 = test: MTT assay, HCT116 cells; type: cell-based; settings: Homo sapiens, HCT-116, aminoguanidine present, mean ± SD of three determinations, max 50 µM tested
Procedure: as §3

herring sperm DNA-EB = test: Fluorescence quenching of DNA-EB complex by compound (EB displacement); type: binding; settings: DNA-EB quenched by 7f
From the text: Ethidium bromide (EB) is a well known DNA intercalator, which is often used as a spectral probe to establish the mode of binding of small molecules to double-helical DNA [41]. The ﬂuorescence of EB increases after binding with DNA due to intercalation. Like EB, if naphthalimides intercalate into the helix of DNA, it would compete with EB for its intercalation sites in DNA, and the displacement of EB from the DNA–EB complex leads to a signiﬁcant decrease in the ﬂuorescence intensity of the DNA-EB complex. Therefore, herring sperm DNA-EB complex in the presence of increasing concentrations of naphthalimide-diamine conjugate 7f was also measured.
as §1, §2
There are several acting forces between a small organic molecule and biomacromolecules, such as hydrophobic force, hydrogen bond, van der Waals force, electrostatic interactions, etc. […]

Cl.Cl.NCCCCNCCCN1C(=O)c2cccc3cccc(c23)C1=O [Compound 7f, 2-[3-(4-Aminobutylamino)propyl]1H-benz-[de]isoquinoline-1,3(2H)-dione dihydrochloride]
IC50 (human leukemia K562): 18.9 ± 1.97 µM
KSV (Stern-Volmer quenching constant) (herring sperm DNA; 298 K): 5567 L/mol
KSV (Stern-Volmer quenching constant) (herring sperm DNA; 303 K): 4789 L/mol
KSV (Stern-Volmer quenching constant) (herring sperm DNA; 310 K): 3651 L/mol
IC50 [1]: 19.7 ± 3.42 µM
IC50 (cancer of colon HCT116): 5.45 ± 1.71 µM
KSV (Stern-Volmer quenching constant) (herring sperm DNA-EB; 298 K): 5028 L/mol
KSV (Stern-Volmer quenching constant) (herring sperm DNA-EB; 303 K): 4564 L/mol
KSV (Stern-Volmer quenching constant) (herring sperm DNA-EB; 310 K): 4176 L/mol
